Results on 6 compounds are retold here after patent publication US11970502B2, “Macrocyclic antiviral agents” (Enanta Pharmaceuticals, Inc., priority 2021, dated 2024).

Like-named read-outs stand apart in the source and are kept apart here.

One assay concerns the target SARS-CoV-2 3CL-protease (Severe acute respiratory syndrome coronavirus 2, UniProt P0DTD1). Put plainly: biochemical.
The subject of assay [1] is 229E human corona virus (hCoV). Put plainly: 229E Cellular Assay (MRC5), 229E live virus assay, ATPlite readout. The assay is classed as cell-based, hCoV-229E. Background: ATP-based viability assays read luminescence as a measure of living cells.
[2] abbreviates: recombinant 3CL-protease 10 nM, substrate 40 μM, 30 min preincubation at RT, read-out: FRET IC50.
Setting [3] is: Human coronavirus 229E, MRC5, 144 h; read-out: EC50 (229E).

For the compound `CC(C)C[C@H]1C(=O)N[C@H](C#N)C[C@@H]2C[C@@H](CCCC[C@H](NC(=O)c3cc4c(F)cc(F)c(F)c4[nH]3)C(=O)N1C)NC2=O` [Example 5], on SARS-CoV-2 3CL-protease (setting [2]), the IC50 lay in the range of 100 to 1000 nM. For the same compound, the EC50 in assay [1] (setting [3]) was over 1000 nM.

On to `CC(C)C[C@H]1C(=O)N[C@H](C#N)C[C@@H]2C[C@@H](CCCC[C@H](NC(=O)c3ccccc3Cl)C(=O)N1C)NC2=O` [Example 3], for which the half-inhibitory concentration (IC50) at SARS-CoV-2 3CL-protease (setting [2]) was under 100 nM. For the same compound, the EC50 in assay [1] (setting [3]) was 100 to 1000 nM.

On to `CC(C)C[C@H]1C(=O)N[C@H](C#N)C[C@@H]2C[C@@H](CCCC[C@H](NC(=O)c3ccccn3)C(=O)N1C)NC2=O` [Example 4], for which, at SARS-CoV-2 3CL-protease (setting [2]), the IC50 is under 100 nM. Further, in assay [1] (setting [3]), the EC50 is over 1000 nM.

Take `CC(C)C[C@H]1C(=O)N[C@H](C#N)C[C@@H]2C[C@@H](CCCC[C@H](NC(=O)OC(C)(C)C)C(=O)N1C)NC2=O` [Example 2]: at SARS-CoV-2 3CL-protease (setting [2]), the half-inhibitory concentration (IC50) is under 100 nM. In addition, the EC50 in assay [1] (Human coronavirus 229E, MRC5, 144 h; MRC-5 cells, hCoV-229E MOI 0.05, 6 days at 34° C., ATPlite; read-out: EC50 (229E)) was over 1000 nM.

On SARS-CoV-2 3CL-protease, `CC(C)C[C@H]1C(=O)N[C@H](C#N)C[C@@H]2C[C@@H](C/C=C/C[C@H](NC(=O)OC(C)(C)C)C(=O)N1C)NC2=O` [Example 1] gave an IC50 of 100 to 1000 nM. Moreover, the EC50 in assay [1] (Human coronavirus 229E, MRC5, 144 h, read-out: EC50 (229E)) is over 1000 nM.

Turning to `CC(C)C[C@H]1C(=O)N[C@H](C#N)C[C@@H]2C[C@@H](CCCCc3nc(-c4ccccc4Cl)oc3N1C)NC2=O` [Example 6], the IC50 on SARS-CoV-2 3CL-protease (setting [2]) is 100 to 1000 nM. Besides, in assay [1] (setting [3]), the EC50 lay in the range of 100 to 1000 nM.

What is called IC50 is the concentration that gives 50% inhibition. As a reminder, the EC50 is the concentration that produces a half-maximal response.
